Laboratory results published in patent US5003011A, “Therapeutic decapeptides” (The Administrators of the Tulane Educational Fund, priority 1989, dated 1991).
Numbered stars: 1 amine (or outer) side, 2 acyl side, 3 side chain; on linkers, the order of the positions; unused ones are H or OH. Square brackets hold non-standard residues; d marks the D form. Peptide text beside a SMILES is read from it. X1 = O=C([C@@H](CCCCNC1CCCC1)N[*:1])[*:2]; X2 = O=C([C@H](CCCCNC1CCCC1)N[*:1])[*:2]; d2Nal = N[C@H](Cc1ccc2ccccc2c1)C(=O)O

Assay: Body weight ratio (FBW/IBW) in the MCF-7 subrenal capsule assay
Format: in vivo, mice
Excerpt: Female CDF-1 mice were implanted with a human mammary tumor (MCF-7) underneath the kidney capsules on day 0. […] The negative control group received vehicle only and the positive control was ovariectomized on day 0.

[1] = Table 2, 100 μg/inj. s.c., QDO5

With `CC(C)C[C@H](NC(=O)[C@@H](Cc1c[nH]c2ccccc12)NC(=O)[C@H](Cc1ccc(O)cc1)NC(=O)[C@H](CO)NC(=O)[C@H](Cc1c[nH]c2ccccc12)NC(=O)[C@H](Cc1c[nH]cn1)NC(=O)[C@@H]1CCC(=O)N1)C(=O)N[C@@H](CCCNC(=N)N)C(=O)N1CCC[C@H]1C(=O)NCC(N)=O` [BIM-21003, reference compound] the “FBW/IBW = Final Body Weight/Initial Body Weight” value [1] was 1.04.

In the case of `CC(C)C[C@H](NC(=O)[C@@H](Cc1ccccc1)NC(=O)[C@H](Cc1ccc(O)cc1)NC(=O)[C@H](CO)NC(=O)[C@H](Cc1c[nH]c2ccccc12)NC(=O)[C@H](Cc1c[nH]cn1)NC(=O)[C@@H]1CCC(=O)N1)C(=O)N[C@@H](CCCNC(=N)N)C(=O)N1CCC[C@H]1C(=O)NCC(N)=O` [BIM-21006, reference compound], the “FBW/IBW = Final Body Weight/Initial Body Weight” value [1] is reported as 0.99.

In the case of `CC(=O)N[C@H](Cc1ccc2ccccc2c1)C(=O)N[C@H](Cc1ccc(Cl)cc1)C(=O)N[C@H](Cc1ccccc1)C(=O)N[C@@H](CO)C(=O)N[C@@H](Cc1ccc(O)cc1)C(=O)N[C@H](CCCNC(=N)N)C(=O)N[C@@H](Cc1ccccc1)C(=O)N[C@@H](CCCNC(=N)N)C(=O)N1CCC[C@H]1C(=O)N[C@H](C)C(N)=O` [BIM-21009] (HELM PEPTIDE1{[ac].[O=C([C@@H](Cc1ccc2ccccc2c1)N[*:1])[*:2]].[O=C([C@@H](Cc1ccc(Cl)cc1)N[*:1])[*:2]].[dF].S.Y.[dR].F.R.P.[dA].[am]}$$$$V2.0), the “FBW/IBW = Final Body Weight/Initial Body Weight” value (Table 2, 1 μg/inj. s.c., QDO5) is reported as 0.98 and the “FBW/IBW = Final Body Weight/Initial Body Weight” value (Table 2, 10 μg/inj. s.c., QDO5) is reported as 0.99.

With `CC(=O)N[C@H](Cc1ccc2ccccc2c1)C(=O)N[C@H](Cc1ccccc1)C(=O)N[C@H](Cc1ccccc1)C(=O)N[C@@H](CO)C(=O)N[C@@H](Cc1ccc(O)cc1)C(=O)N[C@H](CCCNC(=N)N)C(=O)N[C@@H](Cc1ccccc1)C(=O)N[C@@H](CCCNC(=N)N)C(=O)N1CCC[C@H]1C(=O)N[C@H](C)C(N)=O` [BIM-21011] (HELM PEPTIDE1{[ac].[O=C([C@@H](Cc1ccc2ccccc2c1)N[*:1])[*:2]].[dF].[dF].S.Y.[dR].F.R.P.[dA].[am]}$$$$V2.0) the “FBW/IBW = Final Body Weight/Initial Body Weight” value (Table 2, 1 μg/inj. s.c., QDO5) was 0.98, the “FBW/IBW = Final Body Weight/Initial Body Weight” value (Table 2, 10 μg/inj. s.c., QDO5) was 0.99 and the “FBW/IBW = Final Body Weight/Initial Body Weight” value (Table 2, 15 μg/inj. s.c., QDO5) was 0.99.

With `CC(=O)N[C@H](Cc1ccc2ccccc2c1)C(=O)N[C@H](Cc1ccc(Cl)cc1)C(=O)N[C@H](Cc1c[nH]c2ccccc12)C(=O)N[C@@H](CO)C(=O)N[C@@H](Cc1ccc(O)cc1)C(=O)N[C@H](CCCNC(=N)N)C(=O)N[C@@H](Cc1ccccc1)C(=O)N[C@@H](CCCNC(=N)N)C(=O)N1CCC[C@H]1C(=O)N[C@H](C)C(N)=O` [BIM-21023] (HELM PEPTIDE1{[ac].[O=C([C@@H](Cc1ccc2ccccc2c1)N[*:1])[*:2]].[O=C([C@@H](Cc1ccc(Cl)cc1)N[*:1])[*:2]].[dW].S.Y.[dR].F.R.P.[dA].[am]}$$$$V2.0) the “FBW/IBW = Final Body Weight/Initial Body Weight” value (Table 3, 25 μg/inj. s.c., QDO5) was 1.01.

With `CC(=O)N[C@H](Cc1ccc2ccccc2c1)C(=O)N[C@H](Cc1ccccc1)C(=O)N[C@H](Cc1ccccc1)C(=O)N[C@@H](CO)C(=O)N[C@@H](Cc1ccccc1)C(=O)N[C@H](CCCNC(=N)N)C(=O)N[C@@H](CC(C)C)C(=O)N[C@@H](CCCNC(=N)N)C(=O)N1CCC[C@H]1C(=O)N[C@H](C)C(N)=O` [BIM-21024] (HELM PEPTIDE1{[ac].[O=C([C@@H](Cc1ccc2ccccc2c1)N[*:1])[*:2]].[dF].[dF].S.F.[dR].L.R.P.[dA].[am]}$$$$V2.0) the “FBW/IBW = Final Body Weight/Initial Body Weight” value (Table 3, 25 μg/inj. s.c., QDO5) was 1.00.

For `CC(=O)N[C@H](Cc1ccc2ccccc2c1)C(=O)N[C@H](Cc1ccccc1)C(=O)N[C@H](Cc1ccccc1)C(=O)N[C@@H](CO)C(=O)N[C@@H](Cc1ccc(O)cc1)C(=O)N[C@H](CCCCNCc1ccccc1)C(=O)N[C@@H](Cc1ccccc1)C(=O)N[C@@H](CCCNC(=N)N)C(=O)N1CCC[C@H]1C(=O)N[C@H](C)C(N)=O` [BIM-21025] (HELM PEPTIDE1{[ac].[O=C([C@@H](Cc1ccc2ccccc2c1)N[*:1])[*:2]].[dF].[dF].S.Y.[O=C([C@@H](CCCCNCc1ccccc1)N[*:1])[*:2]].F.R.P.[dA].[am]}$$$$V2.0), the “FBW/IBW = Final Body Weight/Initial Body Weight” value (Table 3, 25 μg/inj. s.c., QDO5) was 0.97.

For `CC(=O)N[C@H](Cc1ccc2ccccc2c1)C(=O)N[C@H](Cc1ccccc1)C(=O)N[C@H](Cc1ccccc1)C(=O)N[C@@H](CO)C(=O)N[C@@H](Cc1ccc(O)cc1)C(=O)N[C@H](CCCCNC1CCCC1)C(=O)N[C@@H](Cc1ccccc1)C(=O)N[C@@H](CCCCNC1CCCC1)C(=O)N1CCC[C@H]1C(=O)N[C@H](C)C(N)=O` [BIM-21026] (Ac-[d2Nal][dF][dF]SY[X1]F[X2]P[dA]-NH2), the “FBW/IBW = Final Body Weight/Initial Body Weight” value (Table 3, 25 μg/inj. s.c., QDO5) was 1.01.

For `CC(C)[C@@H]1NC(=O)[C@H](CCCCN)NC(=O)[C@@H](Cc2c[nH]c3ccccc23)NC(=O)[C@H](Cc2ccc(O)cc2)NC(=O)[C@@H](NC(=O)[C@H](N)Cc2ccc3ccccc3c2)CSSC[C@@H](C(=O)N[C@H](C(N)=O)[C@@H](C)O)NC1=O` [BIM-23014C, reference compound], the “FBW/IBW = Final Body Weight/Initial Body Weight” value (Table 3, 2 μg/inj. s.c., QDO5, b.i.d.) was 1.00, the “FBW/IBW = Final Body Weight/Initial Body Weight” value (Table 3, 10 μg/inj. s.c., QDO5, b.i.d.) was 0.99 and the “FBW/IBW = Final Body Weight/Initial Body Weight” value (Table 3, 50 μg/inj. s.c., QDO5, b.i.d.) was 0.98.
